Measured values published in ChEMBL document CHEMBL4431311, “Endothelin-Receptor Antagonists beyond Pulmonary Arterial Hypertension: Cancer and Fibrosis” (J Med Chem, 2016).
Each block holds one molecule with its values, some of them ahead of it.

Columns and labels:
[1] = molecular target: T1, Endothelin-1 receptor (Homo sapiens, UniProt P25101); assay: Displacement of [125I]ET-1 from human ET-A receptor expressed in CHO cell membrane incubated for 2 hrs; format: cell membranes
T1 sequence (P25101 whole entry): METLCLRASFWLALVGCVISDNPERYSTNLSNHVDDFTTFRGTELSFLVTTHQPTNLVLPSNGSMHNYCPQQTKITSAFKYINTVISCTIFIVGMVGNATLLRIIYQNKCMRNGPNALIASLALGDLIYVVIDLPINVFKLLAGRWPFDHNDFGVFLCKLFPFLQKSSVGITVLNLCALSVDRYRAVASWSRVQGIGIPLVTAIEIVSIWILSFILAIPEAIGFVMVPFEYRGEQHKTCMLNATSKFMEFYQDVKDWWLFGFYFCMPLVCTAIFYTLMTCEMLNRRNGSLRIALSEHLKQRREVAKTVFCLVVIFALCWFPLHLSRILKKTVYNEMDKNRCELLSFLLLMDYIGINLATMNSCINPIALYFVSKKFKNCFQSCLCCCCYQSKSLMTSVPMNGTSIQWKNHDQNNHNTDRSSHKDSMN

[2] = molecular target: T2, Endothelin-1 receptor (Homo sapiens) (UniProt P25101); assay: Binding affinity to ET-A receptor (unknown origin) assessed as dissociation half life
T2 sequence (whole entry): T1 sequence (P25101 whole entry)

[3] = molecular target: T1, Endothelin-1 receptor; assay: Displacement of [125I]ET-1 from ET-A receptor in human SK-N-MC cells incubated for 4 hrs by gamma counting method; format: cell-based
[4] = molecular target: T3, Endothelin receptor type B (Homo sapiens, UniProt P24530); assay: Displacement of [125I]ET-1 from ET-B receptor in human Girardi heart cells incubated for 4 hrs by gamma counting method; format: cell-based
T3 sequence (P24530 whole entry): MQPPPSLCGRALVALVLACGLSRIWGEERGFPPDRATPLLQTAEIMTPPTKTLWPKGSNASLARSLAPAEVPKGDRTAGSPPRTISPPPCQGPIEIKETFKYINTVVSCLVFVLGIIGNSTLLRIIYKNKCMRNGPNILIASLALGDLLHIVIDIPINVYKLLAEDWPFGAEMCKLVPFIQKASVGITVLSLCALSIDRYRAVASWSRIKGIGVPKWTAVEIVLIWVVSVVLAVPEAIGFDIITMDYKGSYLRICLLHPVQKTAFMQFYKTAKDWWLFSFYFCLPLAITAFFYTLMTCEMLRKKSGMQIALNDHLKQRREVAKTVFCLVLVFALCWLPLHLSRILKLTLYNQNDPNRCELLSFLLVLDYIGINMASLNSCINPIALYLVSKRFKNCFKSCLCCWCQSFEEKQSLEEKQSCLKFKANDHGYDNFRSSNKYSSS

IC50 [1]: 0.094 µM
Structure (SMILES): Cc1cc(C)cc(C(=O)N(C)[C@H](Cc2ccc(-c3ccccc3)cc2)C(=O)N[C@@H](Cc2c[nH]c3ccccc23)C(=O)O)c1

T1/2 [2]: 1 min
Structure (SMILES): COc1ccccc1Oc1c(NS(=O)(=O)c2ccc(C(C)(C)C)cc2)nc(-c2ncccn2)nc1OCCO

IC50 [3]: 1.3 µM
IC50 [4]: 0.0012 µM
Structure (SMILES): CCCC[C@H](NC(=O)[C@@H](Cc1cn(C(=O)OC)c2ccccc12)NC(=O)[C@@H](CC(C)(C)C)NC(=O)N1[C@H](C)CCC[C@@H]1C)C(=O)O
